Targets include NSMAF; AKT2; IL1R1; RAF1.
What all share (settings): ASO

These antisense oligonucleotides have a phosphorothioate backbone; sugars and methylation of C are not fully specified.
Note: test concentration or dose not given here.

CTTCAGGCTATTGACTAG had a remaining target (mRNA or protein) (fraction of control) with NSMAF of 0.46.

In the data set with AKT2, CTTGAGGCTGTTGGCGAC displayed a remaining target (mRNA or protein) (fraction of control) of 0.18.

For CTTGGAGAAGGCCTTGTCTT, in the data set with IL1R1, the remaining target (mRNA or protein) (fraction of control) was 0.75.

The sequence CTTTCATATTCTTCTTGGAG displayed a remaining target (mRNA or protein) (fraction of control) with IL1R1 of 0.75.

For the sequence CTTTGATGACAGACACCT, the remaining target (mRNA or protein) (fraction of control) with AKT2 amounted to 0.23.

In the data set with IL1R1, GAAACAAATAAGTCTGAGTA had a remaining target (mRNA or protein) (fraction of control) of 0.75.

With GACTCCCATACATGAACT, the remaining target (mRNA or protein) (fraction of control) with NSMAF was determined as 0.51.

In the data set with AKT2, GAGCCACACTTGTAGTCC returned a remaining target (mRNA or protein) (fraction of control) of 0.11.

In turn, GAGGCACCGTGGACAGGG came in with a remaining target (mRNA or protein) (fraction of control) in the data set with AKT2 of 0.33.

As to GAGTGTTATCTGGACCAC, the remaining target (mRNA or protein) (fraction of control) with NSMAF came to 0.28.

In the data set with RAF1, GATGCAGCTTAAACAATTCT had a remaining target (mRNA or protein) (fraction of control) of 0.99.

In turn, GATGGACTGGGCGGTAAA registered a remaining target (mRNA or protein) (fraction of control) with AKT2 of 0.22.

Sequence GCAAAGCGGGCCCAGGAGAA came in with a remaining target (mRNA or protein) (fraction of control) with IL1R1 of 0.3.

For the sequence GCAACGCCATAAGACAGGAG, the remaining target (mRNA or protein) (fraction of control) in the data set with IL1R1 is 0.75.

In turn, GCATGGCTACCTTCTCAT displayed a remaining target (mRNA or protein) (fraction of control) with NSMAF of 0.15.

The sequence GCCACCACAGCCTCTCCCTC yielded a remaining target (mRNA or protein) (fraction of control) with IL1R1 of 0.42.

Consider GCCGAGTGCCTTGCCTGGAA, for which the remaining target (mRNA or protein) (fraction of control) in the data set with RAF1 is 0.98.

For GCCGTGCCTCCTTTTGTA, in the data set with NSMAF, the remaining target (mRNA or protein) (fraction of control) came to 0.47.

GCCTTGCTGACCGCCACT came in with a remaining target (mRNA or protein) (fraction of control) with AKT2 of 0.18.

Sequence GCGGGATGACAGAAGAGCGG displayed a remaining target (mRNA or protein) (fraction of control) with IL1R1 of 0.75.

Turning to GGAACTGCCTTTCGCGGTCT, the remaining target (mRNA or protein) (fraction of control) with IL1R1 was 0.75.

Consider GGCTCTATGCTGTTCAAA, for which the remaining target (mRNA or protein) (fraction of control) with NSMAF turned out to be 0.39.

For the sequence GGCTGGGATATTGAATCT, the remaining target (mRNA or protein) (fraction of control) with NSMAF stood at 0.72.

Regarding GGGTGCCTGGTGTTCTGG, the remaining target (mRNA or protein) (fraction of control) with AKT2 worked out at 0.3.

As for GTCTCCACAACATCTTCC, the remaining target (mRNA or protein) (fraction of control) in the data set with NSMAF stood at 0.86.

As for GTCTTGATGTATTCACCA, in the data set with AKT2, the remaining target (mRNA or protein) (fraction of control) is 0.52.

As to GTGAGCGACTTCATCCTT, the remaining target (mRNA or protein) (fraction of control) in the data set with AKT2 is 0.25.

In the data set with AKT2, GTGATGGCAGCGAGCGTG showed a remaining target (mRNA or protein) (fraction of control) of 0.38.

As for GTGATTCCAGTAACTGCT, the remaining target (mRNA or protein) (fraction of control) with NSMAF was 0.36.

As for TACACTGACATCATGTTC, the remaining target (mRNA or protein) (fraction of control) with NSMAF was 0.43.

For the sequence TACCCGAGAGGCACGTGAGC, the remaining target (mRNA or protein) (fraction of control) with IL1R1 is 0.75.

In turn, TATGACAGTGGCATCTCC showed a remaining target (mRNA or protein) (fraction of control) with NSMAF of 0.65.

In the data set with NSMAF, TCAAGGCAGGATGCTCTG had a remaining target (mRNA or protein) (fraction of control) of 0.23.

Turning to TCGGCTCCTCCCGGCCGCGC, in the data set with IL1R1, the remaining target (mRNA or protein) (fraction of control) turned out to be 0.75.

On to TCGGTGACTGTGTGAGCG, for which the remaining target (mRNA or protein) (fraction of control) in the data set with AKT2 was 0.34.

As to TCTGAGTAACACTTTCAT, the remaining target (mRNA or protein) (fraction of control) in the data set with IL1R1 is 0.75.

For TCTGGCATTTTCTCATAGTC, the remaining target (mRNA or protein) (fraction of control) with IL1R1 stood at 0.75.

With TCTTCAGAGGGTGCGTCTAC, in the data set with IL1R1, the remaining target (mRNA or protein) (fraction of control) was 0.75.

Regarding TGACAGACACCTCATTCA, the remaining target (mRNA or protein) (fraction of control) with AKT2 came out at 0.15.

TGATCCGTGATGCATGCTGT: the remaining target (mRNA or protein) (fraction of control) in the data set with IL1R1 is 0.5.

TGCCTTTCGCGGTCTCGCTC yielded a remaining target (mRNA or protein) (fraction of control) with IL1R1 of 0.75.

In the data set with NSMAF, TGGAAACACAGGGTACTG registered a remaining target (mRNA or protein) (fraction of control) of 0.37.

Turning to TGGACAGGGCACAGTCTC, the remaining target (mRNA or protein) (fraction of control) with AKT2 amounted to 0.3.

Take TGGCATTCTGCTACGGAG: the remaining target (mRNA or protein) (fraction of control) with AKT2 amounted to 0.18.

As for TGGTCACTTTAGCCCGTG, in the data set with AKT2, the remaining target (mRNA or protein) (fraction of control) is not below 1.

Take TGGTGACCTCAGGGATAAAG: the remaining target (mRNA or protein) (fraction of control) with IL1R1 turned out to be 0.75.

In the case of TGTCAGTAGTCTCTCCAG, the remaining target (mRNA or protein) (fraction of control) in the data set with NSMAF amounted to 0.25.

Consider TGTGATTGTGATGGACTG, for which the remaining target (mRNA or protein) (fraction of control) in the data set with AKT2 is 0.3.

TGTGGAGCCAGCCTTCTT had a remaining target (mRNA or protein) (fraction of control) in the data set with AKT2 of 0.28.

Turning to TGTGTCCGTGATGCACAC, the remaining target (mRNA or protein) (fraction of control) in the data set with NSMAF came to 0.24.

In the data set with IL1R1, TGTGTCCTGCAATCGGTGGC yielded a remaining target (mRNA or protein) (fraction of control) of 0.1.

TGTGTGGCCCTGTATTCT had a remaining target (mRNA or protein) (fraction of control) with NSMAF of 0.38.

In the data set with NSMAF, TGTTGAACATTCTATCTG gave a remaining target (mRNA or protein) (fraction of control) of 0.79.

As to TTAAAATCCGTTGCACCA, the remaining target (mRNA or protein) (fraction of control) with NSMAF was 0.55.

Take TTCCATCTCCTCAGTCGT: the remaining target (mRNA or protein) (fraction of control) with AKT2 was found to be 0.19.

With TTCCATGTGCAGCTTTTC, in the data set with NSMAF, the remaining target (mRNA or protein) (fraction of control) was 0.34.

TTTAGGTAGATGTCGGAA: in the data set with NSMAF, the remaining target (mRNA or protein) (fraction of control) is 0.52.

Turning to TTTCCTTTCATGGTGACT, the remaining target (mRNA or protein) (fraction of control) with NSMAF was determined as 0.43.

TTTGTGAAGTGTCTATTG had a remaining target (mRNA or protein) (fraction of control) with NSMAF of 0.51.

These data come from the OligoGym collection.
